Test results published in publication PMC11594329, “Development of LAT1-Selective Nuclear Medicine Therapeutics Using Astatine-211” (International Journal of Molecular Sciences, 2024).
Entries after “also recorded” stand apart in the source; their conditions may differ.

What was measured:
PANC-1 cells = experiment: Uptake in PANC-1 cell line; format: cell-based; details: for Uptake of optical isomers: %ID/mg protein
Experimental: Each cell line was seeded in 24 wells at 1 × 10^5 cells/mL and allowed to become sub-confluent on the day of the experiment. Cells were washed with PBS (-) (Fujifilm Wako Pure Chemical, Osaka, Japan) prior to the addition of the compound, which was then replaced with uptake buffer. After treating the cells with the same dose, they were collected at predetermined time points. The cell dose was measured using a γ-counter (Wizard^2 2480; PerkinElmer, Waltham, MA, USA), and the protein content of the sample was determined. Protein content was measured using the BCA method, and the dose was corrected using the protein content (Protein Assay BCA kit, Fujifilm Wako Pure Chemical).
Figure 2 Comparison of uptake between the labeled compounds. (A) Relation between uptake ratio and LAT1 expression level. Uptake ratios were compared between LAT1-Tet/HEK293 cells. The Y-axis represents the uptake ratio, and the X-axis is concentration of Doxycycline (Dox) (TaKaRa Bio, Shiga, Japan). The collection time was 30 min after treatment. The expression of LAT1 increased with increasing amounts of Dox. (B) Comparison of uptake in PANC-1 cell line. The collection times were 0.5, 1, 5 and 10 min after treatment.
Figure 3 Comparison of intracellular uptake of […]-AAMT-O-Me L-isomer and ^211At-AAMT-O-Me D-isomer of ^211At-AAMT-O-Me. (A) Uptake in Mock/HEK293, LAT1/HEK293, and […] lines. (B) Uptake in PANC-1 cells. The y-axis represents %ID/mg protein. BCH: -Amino-2-norbornanecarboxylic acid. BCH was treated at 20 mM. ** p < 0.01, *** p < 0.001.
The PANC-1 cell line was obtained from the RIKEN Cell Bank and maintained in RPMI 1640 medium (Fujifilm Wako Pure Chemical, Osaka, Japan) supplemented with 10% inactivated fetal bovine serum (Thermo Fisher Scientific, Waltham, MA, USA). Mock/HEK293, LAT1/HEK293, and LAT2/HEK203 cells were kindly provided by Dr. Kanai. Cell lines controlling LAT1 expression were constructed using the Tet-on system. […]

[1] = Tissue distribution in ICR mice (normal animals); format: in vivo
Excerpt: ICR mice (male, 5 weeks old) were purchased from Japan SLC (Shizuoka, Japan) and acclimated for one week prior to use. The doses in the distribution experiments were as follows: ^211At-AAMT-O-Me-L (0.407 ± 0.005 MBq/mouse, 31.64 ± 0.76 g, n = 6), ^211At-AAMT-O-Me-D (0.351 ± 0.004 MBq/mouse, 31.44 ± 0.94 g, n = 6), ^211At-AAMT-O-Et-L (0.685 ± 0.010 MBq/mouse, 24.14 ± 3.31 g, n = 6), ^211At-AAMT-O-Pr-L (1.09 ± 0.06 MBq/mouse, 26.33 ± 0.39 g, n = 6)

Row | Compound | Uptake of optical isomers (PANC-1 cells) | Tissue distribution, Bladder ([1]; 1 h after injection) [%ID/g] | Tissue distribution, Blood ([1]; 1 h after injection) [%ID/g] | Tissue distribution, Bone ([1]; 1 h after injection) [%ID/g] | Tissue distribution, Brain ([1]; 1 h after injection) [%ID/g] | Tissue distribution, Cecum ([1]; 1 h after injection) [%ID/g] | Tissue distribution, Colon ([1]; 1 h after injection) [%ID/g] | Tissue distribution, Heart ([1]; 1 h after injection) [%ID/g] | Tissue distribution, Kidney ([1]; 1 h after injection) [%ID/g] | Tissue distribution, Liver ([1]; 1 h after injection) [%ID/g] | Tissue distribution, Lung ([1]; 1 h after injection) [%ID/g] | Tissue distribution, Pancreas ([1]; 1 h after injection) [%ID/g] | Tissue distribution, Salivary glands ([1]; 1 h after injection) [%ID/g] | Tissue distribution, Small intestine ([1]; 1 h after injection) [%ID/g] | Tissue distribution, Spleen ([1]; 1 h after injection) [%ID/g] | Tissue distribution, Stomach ([1]; 1 h after injection) [%ID/g] | Tissue distribution, Testis ([1]; 1 h after injection) [%ID/g] | Tissue distribution, Thymus ([1]; 1 h after injection) [%ID/g] | Tissue distribution, Thyroid ([1]; 1 h after injection) [%ID/g] | Tissue distribution, Bladder ([1]; 3 h after injection) [%ID/g] | other results
1 | COc1ccc(C[C@@](C)(N)C(=O)O)cc1[211At] [^211At-AAMT-O-Me-D] | taken up less | 10.62 ± 8.22 | 1.90 ± 0.57 | 0.93 ± 0.35 | 0.15 ± 0.01 | 0.47 ± 0.19 | 2.54 ± 1.55 | 3.20 ± 1.26 | 1.48 ± 0.39 | 0.58 ± 0.11 | 2.84 ± 1.11 | 2.38 ± 1.36 | 4.67 ± 1.03 | 2.66 ± 1.23 | 2.92 ± 1.49 | 6.34 ± 2.74 | 1.84 ± 0.23 | 1.89 ± 0.90 | 8.06 ± 3.56 | 0.19 ± 0.11 | Tissue distribution, Blood ([1]; 3 h after injection): 0.38 ± 0.16 %ID/g; Tissue distribution, Bone ([1]; 3 h after injection): 0.28 ± 0.11 %ID/g; Tissue distribution, Brain ([1]; 3 h after injection): 0.04 ± 0.00 %ID/g; Tissue distribution, Cecum ([1]; 3 h after injection): 0.50 ± 0.23 %ID/g; Tissue distribution, Colon ([1]; 3 h after injection): 0.95 ± 0.59 %ID/g; Tissue distribution, Heart ([1]; 3 h after injection): 0.43 ± 0.20 %ID/g; Tissue distribution, Kidney ([1]; 3 h after injection): 0.73 ± 0.15 %ID/g; Tissue distribution, Liver ([1]; 3 h after injection): 1.34 ± 0.47 %ID/g; Tissue distribution, Lung ([1]; 3 h after injection): 0.69 ± 0.28 %ID/g; Tissue distribution, Pancreas ([1]; 3 h after injection): 0.42 ± 0.28 %ID/g; Tissue distribution, Salivary glands ([1]; 3 h after injection): 0.96 ± 0.16 %ID/g; Tissue distribution, Small intestine ([1]; 3 h after injection): 5.33 ± 2.18 %ID/g; Tissue distribution, Spleen ([1]; 3 h after injection): 0.42 ± 0.14 %ID/g; Tissue distribution, Stomach ([1]; 3 h after injection): 8.08 ± 3.50 %ID/g; Tissue distribution, Testis ([1]; 3 h after injection): 0.31 ± 0.02 %ID/g; Tissue distribution, Thymus ([1]; 3 h after injection): 0.18 ± 0.06 %ID/g; Tissue distribution, Thyroid ([1]; 3 h after injection): 0.42 ± 0.20 %ID/g
2 | COc1ccc(C[C@](C)(N)C(=O)O)cc1[211At] [^211At-AAMT-O-Me-L, (S)-2-amino-3-(3-(astato-^211At)-4-methoxyphenyl)-2-methylpropanic acid] | taken up more | 7.10 ± 1.15 | 1.57 ± 0.10 | 1.33 ± 0.16 | 0.32 ± 0.02 | 0.85 ± 0.04 | 0.93 ± 0.13 | 2.01 ± 0.15 | 2.47 ± 0.24 | 1.11 ± 0.10 | 6.42 ± 1.52 | 1.52 ± 0.17 | 7.16 ± 1.54 | 1.82 ± 0.08 | 5.01 ± 1.42 | 13.65 ± 2.40 | 2.31 ± 0.04 | 2.03 ± 0.50 | 13.12 ± 1.72 | 0.10 ± 0.01 | Time-dependent uptake (PANC-1 cells; collection 0.5, 1, 5 and 10 min after treatment): highest uptake; also recorded: significantly higher uptake than the seed compound; Tissue distribution, Blood ([1]; 3 h after injection): 1.17 ± 0.24 %ID/g; Tissue distribution, Bone ([1]; 3 h after injection): 0.53 ± 1.31 %ID/g; Tissue distribution, Brain ([1]; 3 h after injection): 0.10 ± 0.02 %ID/g; Tissue distribution, Cecum ([1]; 3 h after injection): 0.95 ± 0.11 %ID/g; Tissue distribution, Colon ([1]; 3 h after injection): 0.80 ± 0.12 %ID/g; Tissue distribution, Heart ([1]; 3 h after injection): 0.34 ± 0.02 %ID/g; Tissue distribution, Kidney ([1]; 3 h after injection): 1.11 ± 0.15 %ID/g; Tissue distribution, Liver ([1]; 3 h after injection): 2.57 ± 0.17 %ID/g; Tissue distribution, Lung ([1]; 3 h after injection): 1.34 ± 0.32 %ID/g; Tissue distribution, Pancreas ([1]; 3 h after injection): 0.19 ± 0.04 %ID/g; Tissue distribution, Salivary glands ([1]; 3 h after injection): 1.77 ± 0.19 %ID/g; Tissue distribution, Small intestine ([1]; 3 h after injection): 3.91 ± 0.20 %ID/g; Tissue distribution, Spleen ([1]; 3 h after injection): 0.80 ± 0.19 %ID/g; Tissue distribution, Stomach ([1]; 3 h after injection): 16.96 ± 1.89 %ID/g; Tissue distribution, Testis ([1]; 3 h after injection): 0.52 ± 0.06 %ID/g; Tissue distribution, Thymus ([1]; 3 h after injection): 0.14 ± 0.03 %ID/g; Tissue distribution, Thyroid ([1]; 3 h after injection, listed as L-Isomer): 0.65 ± 0.16 %ID/g
